Experimental data published in patent US20040018561A1, “Peptide compounds and their use as protease substrates” (priority 2002, published 2004).
*1 amine or outer side, *2 acyl side, *3 side chain or, on linkers, in order; H or OH if unused. Where a SMILES comes first, the peptide text is derived from it. [ ]: non-standard residue; d: D form. The star is where a group is joined. Dnp = O=[N+]([O-])c1ccc(*)c([N+](=O)[O-])c1; X2 = O=C([C@H](CCCCOCc1ccccc1)N[*:1])[*:2]; X1 = O=C([C@H](CCCCOc1ccccc1)N[*:1])[*:2]; Mca = COc1ccc2c(CC(=O)*)cc(=O)oc2c1; Dap = NC[C@H](N)C(=O)O

Key:
[1] = octanol/water; Tao et al., J. Mol. Model. 1999; cited from earlier work
MMP-7 = target: T1, MMP-7 (Homo sapiens, UniProt P09237); assay: Km and kcat/Km of substrates with MMP-7; assay type: biochemical; details: summary of Table 1
T1 sequence (P09237 95-267): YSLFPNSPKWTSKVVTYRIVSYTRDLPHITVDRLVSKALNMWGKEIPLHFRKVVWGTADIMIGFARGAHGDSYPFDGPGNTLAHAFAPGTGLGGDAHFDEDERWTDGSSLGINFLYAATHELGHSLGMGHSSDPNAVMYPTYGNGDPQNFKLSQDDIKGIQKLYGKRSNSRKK

MMP-1 = target: T2, MMP-1 (Homo sapiens, UniProt P03956); assay: Km and kcat/Km of substrates with MMP-1; assay type: biochemical; details: summary of Table 1
T2 sequence (P03956 100-469): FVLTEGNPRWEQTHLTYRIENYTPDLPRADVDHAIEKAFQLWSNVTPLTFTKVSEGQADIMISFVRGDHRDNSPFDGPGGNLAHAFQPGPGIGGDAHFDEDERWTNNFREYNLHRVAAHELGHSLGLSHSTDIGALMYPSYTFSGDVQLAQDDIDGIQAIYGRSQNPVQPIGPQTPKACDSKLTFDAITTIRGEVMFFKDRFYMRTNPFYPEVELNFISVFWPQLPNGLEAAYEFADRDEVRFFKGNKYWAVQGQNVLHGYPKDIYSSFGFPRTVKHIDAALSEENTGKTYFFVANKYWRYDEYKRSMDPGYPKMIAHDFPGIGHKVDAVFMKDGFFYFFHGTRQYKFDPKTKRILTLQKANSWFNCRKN

SMILES: C[C@H](N)C(=O)O [alanine]
- Log D contribution in a peptide [1]: −0.27

SMILES: N[C@@H](CCC(=O)O)C(=O)O [glutamic acid]
- Log D contribution in a peptide [1]: −2.19

SMILES: COc1ccc2c(CC(=O)N[C@H](CCCNC(=N)N)C(=O)N3CCC[C@H]3C(=O)N[C@@H](CC(C)C)C(=O)NCC(=O)N[C@@H](CCCCOCc3ccccc3)C(=O)N[C@@H](CNc3ccc([N+](=O)[O-])cc3[N+](=O)[O-])C(=O)N[C@@H](C)C(=O)N[C@H](CCCNC(=N)N)C(=O)N[C@H](CCC(=O)O)C(=O)N[C@H](CCCNC(=N)N)C(N)=O)cc(=O)oc2c1 [Compound 21, N-2-[(7-methoxy-2-oxo-2H-chromen-4-yl)acetyl]-D-arginyl-L-prolyl-L-leucylglycyl-6-(benzyloxy)-L-norleucyl-3-[(2,4-dinitrophenyl)amino]-L-alanyl-L-alanyl-D-arginyl-D-alpha-glutamyl-D-argininamide] (Mca-[dR]PLG[X2][Dap](Dnp)A[dR][dE][dR]-NH2)
- kcat with MMP-7 (in words) (MMP-7): low kcat or kcat of zero
- kcat with MMP-1 (in words) (MMP-1): low kcat or kcat of zero

SMILES: N[C@@H](CC(=O)O)C(=O)O [aspartic acid]
- Log D contribution in a peptide [1]: −2.06

SMILES: NCCCC[C@H](N)C(=O)O [lysine]
- Log D contribution in a peptide [1]: −2.27

SMILES: N[C@@H](Cc1c[nH]cn1)C(=O)O [histidine]
- Log D contribution in a peptide [1]: −0.44

SMILES: NCC(=O)O [glycine]
- Log D contribution in a peptide [1]: −0.22

SMILES: COc1ccc2c(CC(=O)N[C@@H](CCCNC(=N)N)C(=O)N3CCC[C@H]3C(=O)N[C@@H](CC(C)C)C(=O)NCC(=O)N[C@@H](CCCCOCc3ccccc3)C(=O)N[C@@H](CNc3ccc([N+](=O)[O-])cc3[N+](=O)[O-])C(=O)N[C@@H](C)C(=O)N[C@@H](CCCNC(=N)N)C(=O)N[C@@H](CCC(=O)O)C(=O)N[C@@H](CCCNC(=N)N)C(N)=O)cc(=O)oc2c1 [Compound 20, N-2-[(7-methoxy-2-oxo-2H-chromen-4-yl)acetyl]-L-arginyl-L-prolyl-L-leucylglycyl-6-(benzyloxy)-L-norleucyl-3-[(2,4-dinitrophenyl)amino]-L-alanyl-L-alanyl-L-arginyl-L-alpha-glutamyl-L-argininamide] (Mca-RPLG[X2][Dap](Dnp)ARER-NH2)
- kcat with MMP-7 (in words) (MMP-7): low kcat or kcat of zero
- kcat with MMP-1 (in words) (MMP-1): low kcat or kcat of zero

SMILES: NC(=O)C[C@H](N)C(=O)O [asparagine]
- Log D contribution in a peptide [1]: −0.98

SMILES: N=C(N)NCCC[C@H](N)C(=O)O [arginine]
- Log D contribution in a peptide [1]: −1.65

SMILES: C[C@@H](O)[C@H](N)C(=O)O [threonine]
- Log D contribution in a peptide [1]: −0.26

SMILES: COc1ccc2c(CC(=O)N[C@H](CCCNC(=N)N)C(=O)N3CCC[C@H]3C(=O)N[C@@H](CC(C)C)C(=O)NCC(=O)N[C@@H](CCCCOc3ccccc3)C(=O)N[C@@H](CNc3ccc([N+](=O)[O-])cc3[N+](=O)[O-])C(=O)N[C@@H](C)C(=O)N[C@H](CCCNC(=N)N)C(=O)N[C@H](CCC(=O)O)C(=O)N[C@H](CCCNC(=N)N)C(N)=O)cc(=O)oc2c1 [Compound 25, N-2-[(7-methoxy-2-oxo-2H-chromen-4-yl)acetyl]-D-arginyl-L-prolyl-L-leucylglycyl-6-phenoxy-L-norleucyl-3-[(2,4-dinitrophenyl)amino]-L-alanyl-L-alanyl-D-arginyl-D-alpha-glutamyl-D-argininamide] (Mca-[dR]PLG[X1][Dap](Dnp)A[dR][dE][dR]-NH2)
- kcat with MMP-7 (in words) (MMP-7): low kcat or kcat of zero
- kcat with MMP-1 (in words) (MMP-1): low kcat or kcat of zero
